#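 Values below derive from 48-hour exposures of cells grown in 96-well plates, with endpoints linearly interpolated between the two concentrations bracketing the appropriate inhibition level. At the TGI there is no net growth.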
# Assays:
# Assay in all cases: growth of human tumour cells (NCI), 48 h
# MDA-MB-231 breast = tested on: MDA-MB-231 breast
# OVCAR-8 ovarian = tested on: OVCAR-8 ovarian
# K-562 leukemia = tested on: K-562 leukemia
# NCI-H23 lung = tested on: NCI-H23 lung
# HT29 colon = tested on: HT29 colon
# BT-549 breast = tested on: BT-549 breast
# ACHN renal = tested on: ACHN renal
# MALME-3M melanoma = tested on: MALME-3M melanoma
# SR leukemia = tested on: SR leukemia
# SN12C renal = tested on: SN12C renal
# UO-31 renal = tested on: UO-31 renal
# SK-MEL-5 melanoma = tested on: SK-MEL-5 melanoma
Compound,TGI (MDA-MB-231 breast) [µM],TGI (OVCAR-8 ovarian) [µM],TGI (K-562 leukemia) [µM],TGI (NCI-H23 lung) [µM],TGI (HT29 colon) [µM],TGI (BT-549 breast) [µM],TGI (ACHN renal) [µM],TGI (MALME-3M melanoma) [µM],TGI (SR leukemia) [µM],TGI (SN12C renal) [µM],TGI (UO-31 renal) [µM],TGI (SK-MEL-5 melanoma) [µM]
O=S(=O)(Nc1ccccc1S(=O)(=O)c1ccccc1)c1ccccc1,> 100,> 100,> 100,> 100,> 100,> 100,> 100,> 100,> 100,> 100,> 100,> 100
CC1C(c2ccccc2O)c2cc3c(cc2OC1N1CCCC1)OCO3 (configuration not stated),61.2,> 100,41.8,> 100,30.8,> 100,> 100,80.2,54.2,35.8,> 100,> 100
CS(=O)(=O)C(=Cc1ccccc1Cl)S(C)(=O)=O,> 100,> 100,> 100,> 100,> 100,> 100,> 100,> 100,> 100,> 100,> 100,> 100
Nc1nc(Cl)c2ncn(Cc3ccccc3CCl)c2n1,9.61,19.6,> 100,8.84,18.9,22.9,22,10.2,> 100,5.62,45,26.5
C=C1C(=O)C=C2C=C3C(=O)C(C)(C)C[C@]3(O)C12C (some centres not stated),7.59,29.3,3.98,12.9,11.1,3.05,4.53,3.65,2.28,23.9,14,19
OC[C@H]1CC(c2nn[nH]n2)[C@H](O)[C@@H]1O (some centres not stated),> 100,> 100,> 100,> 100,> 100,> 100,> 100,> 100,> 100,> 100,> 100,> 100
O=C1c2c(Br)sc(Br)c2[C@H]2NC(=S)O[C@@H]12,32.2,24.5,20.7,29.9,33.5,30.3,31.6,29.8,15.3,32.7,29.8,29.7
COc1ccc(-c2nc3ccc(C)cc3o2)c(OC)c1,50.5,77.1,> 64.5,87.5,30.2,67.1,> 100,42.1,> 72.3,> 82.1,58.1,43.3
CC[n+]1[b-](C(C)(C)C)n(/N=C(\C)C(C)(C)C)[b-](C(C)(C)C)[n+]1CC,> 100,> 100,> 100,> 100,> 100,> 100,> 100,> 100,56.8,> 100,> 100,> 100
CC[C@H](CCCCC1CC[C@@H]2CC(=O)C[C@H]12)OC (some centres not stated),> 100,> 100,> 100,> 100,> 100,> 100,> 100,> 100,> 100,> 100,> 100,> 100
CNC(=O)N(CCC#N)CCN(CCN(C(=O)NC)c1ccccc1)C(=O)NC,> 100,> 100,> 100,> 100,> 100,> 100,> 100,> 100,> 100,> 100,> 100,> 100
CCCCNc1nc(SC)nc2nc[nH]c12,> 100,> 100,> 100,> 100,> 100,> 100,> 100,> 100,> 100,> 100,> 100,> 100
CCCCc1ccc(Nc2nc(Cl)c3[nH]cnc3n2)cc1,30.2,37.3,> 100,33.9,36.3,65.4,> 100,42.2,> 100,49.9,72.5,31.6
COC(=O)[C@]1(c2cc3ccccc3n2S(=O)(=O)c2ccccc2)CC2CCC1NC2 (some centres not stated),27.1,32.3,24.4,40.1,25.7,32.9,51.3,30.5,19.2,29.4,22.3,26.4
COC(=O)C(Cc1ccccc1)NS(=O)(=O)c1ccc(-c2c3nc(c(-c4ccc(S(=O)(=O)NC(Cc5ccccc5)C(=O)OC)cc4)c4ccc([nH]4)c(-c4ccc(S(=O)(=O)NC(Cc5ccccc5)C(=O)OC)cc4)c4nc(c(-c5ccc(S(=O)(=O)NC(Cc6ccccc6)C(=O)OC)cc5)c5ccc2[nH]5)C=C4)C=C3)cc1 (configuration not stated),> 100,> 100,> 100,> 100,> 100,> 100,> 100,> 100,> 100,> 100,> 100,> 100
Cc1ccc(S(=O)(=O)n2ccn3c(=O)cc(C)nc23)cc1,> 10,> 10,> 10,> 10,> 10,> 10,> 10,> 10,> 10,> 10,> 10,> 10
CC(O[Si](C)(C)C(C)(C)C)[C@H](NC(=O)OCC(Cl)(Cl)Cl)C(=O)O (some centres not stated),> 100,> 100,> 100,> 100,> 100,> 100,> 100,> 100,> 100,> 100,> 100,> 100
CC(C)(C)OC(=O)C(C1NC(C(=O)O)C(C)(C)S1)N1C(=O)c2ccccc2C1=O (configuration not stated),> 100,> 100,> 100,> 100,> 100,> 100,> 100,> 100,> 100,> 100,> 100,> 100
Cc1ccc(S(=O)(=O)C2=c3ncccc3=C3C(=O)c4ccccc4C(=O)C32)cc1 (configuration not stated),> 100,> 100,> 100,> 100,> 100,> 88.6,> 95.8,> 100,> 100,> 100,> 100,> 15
COc1ccc(OC)c(C2CCc3cnc4nc(N)nc(N)c4c3C2)c1 (configuration not stated),> 100,> 100,> 100,> 100,> 100,> 100,> 100,> 100,> 100,> 100,85.3,> 100
C=CCCCC1(C)CCCCNC1=O (configuration not stated),> 10,> 10,> 10,> 10,> 10,> 10,> 10,> 10,> 10,> 10,> 10,> 10
